This test deals with CEM cells HIV-1 protection, formazan growth assay. Description: NCI AIDS Antiviral Assay. Conditions: for IC50: measured here: growth of uninfected CEM cells. The gist of the method: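 Five concentrations of each compound were applied to infected and uninfected human CEM cells. Protection from HIV-1 was judged from growth measured with a soluble formazan assay.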

The structures appear in SMILES notation. Active and inactive are the calls of the source.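 Rule for the calls: active = compounds giving half or more protection of infected cells from virus-caused growth loss, again on retest; inactive = the rest.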

As a reminder, the EC50 is the midpoint of the concentration-response curve. A word on the IC50: it is the concentration at which inhibition is half-maximal. A higher IC50 goes with a need for much substance. For `CC1=C2c3ccccc3N(S(=O)(=O)c3ccccc3)[C@H]2[C@H](C(=O)N2C3CC4CC[C@@]3(CS2(=O)=O)C4(C)C)CC1` (stereo not given in full), the EC50 is 5.25 µM and the IC50 is 18.6 µM.

Regarding `COCCOCCOCCOc1cccc2c1C(=O)c1cccc(OCCOCCOCCOC)c1C2=O`, the outcome was inactive.

Regarding `C=C(C)C12CC3/C(=N\O)C(C1)C(C)C(/C3=N\O)[C@@]2(C)O` (stereo not given in full), the EC50 is greater than 200 µM and the IC50 is greater than 200 µM.

Regarding `CCN=C(N)C(C)SS(=O)(=O)O` (stereo not given), the EC50 was greater than 200 µM and the IC50 turned out to be 170 µM.

As for `O=c1[nH]c(=O)n(C2CC(O)C(CO)O2)cc1NN=NCc1ccccc1` (stereo not given), the EC50 is greater than 200 µM and the IC50 was greater than 200 µM.

For `C1CSC[C@H]2COC[C@@H](CSCCS1)S2`, the EC50 is greater than 631 µM and the IC50 is greater than 631 µM.

With `CC(=Nc1ccccc1C(=O)[O-])c1c([O-])ccc2c(C)cc(=O)oc12.[OH3+].[OH3+].[OH3+].[Zn+2]`, the EC50 is greater than 2.29 µM and the IC50 was greater than 2.29 µM.

Regarding `CC(C)=CCC/C(C)=C/CCC1(C)C2COC(=O)C21` (stereo not given), the EC50 is greater than 200 µM and the IC50 came out at 46.8 µM.

For the compound `O=C1Nc2cccc3c2N(CCC3)C2=C1CCC2`, the EC50 was greater than 200 µM and the IC50 is greater than 200 µM.

On to `Cc1nc2ccc(NC(=S)Nc3ccccc3)cc2c(=O)n1-c1ccccc1`, for which the EC50 was greater than 200 µM and the IC50 was greater than 200 µM.

For `CCC(=O)NC(C(=O)NC(C(=O)NC(CC(C)C)C(O)CC(=O)NC(C)C(=O)NC(CC(C)C)C(O)CC(=O)O)C(C)C)C(C)C` (stereo not given), the EC50 was greater than 7.59 µM and the IC50 was greater than 7.59 µM.

Regarding `O=C(CC(=O)N1N=C(n2ccc3ccccc32)CC1c1ccccc1)Nc1cccc(Cl)c1` (stereo not given), the result was inactive.

In the case of `c1ccc(COCC23CCN(Cc4ccccc4)C(CC(OCc4ccccc4)C2)S3)cc1` (stereo not given), the EC50 was greater than 200 µM and the IC50 turned out to be 45.7 µM.

For `NCCCNc1ccc2c(c1)[n+]([O-])c1ccccc1[n+]2[O-]`, the EC50 is greater than 437 µM and the IC50 amounted to 10.2 µM.

`CCCCNC(=O)/C(=C\c1ccc(OC)c(OC)c1)NC(=O)c1ccccc1`: the EC50 is greater than 200 µM and the IC50 is greater than 200 µM.

Take `O=c1oc(-c2ccccc2)nnc1-c1ccccc1`: the EC50 was greater than 178 µM and the IC50 was greater than 178 µM.

For `c1cc(-c2nc(-c3ccncc3)nc(-c3ccncc3)n2)ccn1`, the EC50 is greater than 200 µM and the IC50 was greater than 200 µM.

With `O=C1NC(O)c2cc(O)ccc2O1` (stereo not given), the EC50 is greater than 200 µM and the IC50 was 81.3 µM.

Take `CN1CN(c2ccccc2)C2(CCN(C(=O)OC(C)(C)C)CC2)C1=O`: the EC50 was greater than 100 µM and the IC50 was greater than 100 µM.

As to `CC(C)CCCC(C)[C@H]1CCC2[C@H]3C(CC[C@@]21C)[C@@]1(C)CCC=C[C@]12C[C@@H]2[C@@H]3O` (stereo not given in full), the outcome was inactive.

On to `CC(=O)O[C@@]12[C@@H]3O[C@@]4(O)C[C@]5(C)[C@H]6C[C@@](C(C)C)(O[C@H]5c5ccoc5)O[C@H]1[C@]6(C4)O[C@]2(O)C(C)=CC3(C)C`, for which the EC50 is greater than 100 µM and the IC50 was found to be 52.5 µM.

Take `COC(=O)/C=C1\SC2(OC1=Nc1ccccc1)C1CC3CC(C1)CC2C3` (stereo not given): the EC50 was greater than 200 µM and the IC50 was greater than 200 µM.

As to `COc1cccc(-c2nccc3c(OCc4ccccc4)c(OC)c(OC)cc23)c1`, the result was inactive.

In the case of `CCn1c(O)c(C=Nc2ccccc2)s/c1=N/Nc1nc(-c2ccccc2)cs1`, the EC50 is greater than 200 µM and the IC50 turned out to be 24.5 µM.

On to `O=[N+]([O-])/C=C/c1cc2ccccc2[nH]1`, for which the EC50 was greater than 200 µM and the IC50 was 6.31 µM.

For the compound `Cc1cn(C2O[C@@H]3CN(O)[C@H](C)[C@]3(O)C2O)c(=O)[nH]c1=O` (stereo not given in full), the EC50 is greater than 200 µM and the IC50 was greater than 200 µM.

Turning to `Oc1cc(Br)cc2cc(Br)cnc12`, the outcome was inactive.

As for `COc1cc2cccc(OC)c(=O)c2c(O)c1OC`, the outcome was inactive.

As to `COc1ccc2nc3cc(Cl)ccc3c(NCCCN3CCN(CCCNc4ccc5nnn6c7ccccc7c(=O)c4c56)CC3)c2c1`, the EC50 was 0.00251 µM and the IC50 turned out to be 0.00794 µM.

For the compound `CC(=O)OCC1OC(n2c(-c3ccc(C)cc3)cc(-c3ccco3)c(C#N)c2=O)C(OC(C)=O)C(OC(C)=O)C1OC(C)=O` (stereo not given), the EC50 is greater than 16.2 µM and the 50% inhibitory concentration (IC50) was greater than 16.2 µM.

Consider `O=C(CC(O)(C(F)(F)Cl)C(F)(F)Cl)CC(O)(C(F)(F)Cl)C(F)(F)Cl`, for which the outcome was inactive.

The compound `Nc1c(Br)cc2c(c1Br)Cc1cc(N=Nc3ccccc3)ccc1-2` came in with an EC50 of 51.3 µM and an IC50 of 102 µM.

Turning to `O=C1c2ccc(S(=O)(=O)O)c(O)c2C(=O)c2ccc(S(=O)(=O)O)c(O)c21`, the result was inactive.

With `NC(C(F)(F)F)(C(F)(F)F)P(=O)(c1ccccc1)c1ccccc1`, the EC50 was greater than 200 µM and the IC50 was greater than 200 µM.

On to `Nc1ncnc2c1ncn2C1OC2CSCCC2(O)C1O` (stereo not given), for which the EC50 is greater than 200 µM and the IC50 was greater than 200 µM.

For `COc1ccc(C2CCc3cc4c(cc3/C2=N/OC(C)=O)OCO4)cc1OC` (stereo not given), the outcome was inactive.

Consider `N#Cc1cc2c(n(C3OC(CO)C(O)C(O)C3O)c1=S)CCCCCC2` (stereo not given), for which the EC50 is greater than 200 µM and the half-inhibitory concentration (IC50) was greater than 200 µM.

Take `CC(=O)[C@@]1(O)CC[C@H]2[C@@H]3C[C@H](C)C4=CC(=O)C=C[C@]4(C)[C@@]3(F)[C@@H](O)C[C@@]21C`: the outcome was inactive.

As for `O=C(OC[C@H]1OC(OC(=O)c2ccccc2)C(=O)C2(OC(=O)c3ccccc3)C3C=CC(C3)C12)c1ccccc1` (stereo not given in full), the outcome was inactive.

As for `C#CCOCn1ccc(=O)[nH]c1=O`, the EC50 was greater than 200 µM and the IC50 was greater than 200 µM.

As for `Cc1c(N2CCOCC2)nc2ccc(Cl)cc2c1-c1ccccc1`, the EC50 is greater than 4.27 µM and the IC50 is greater than 4.27 µM.

On to `CCCNC(=S)N/N=C(\C)c1ccc(S(=O)(=O)N(C)c2ccccc2)cc1`, for which the EC50 was greater than 200 µM and the IC50 is greater than 200 µM.

As to `CC1=CC(=O)NCCN1C`, the EC50 is 138 µM and the IC50 worked out at 1780 µM.

With `CC1=C(C(=O)N(C(C)C)C(C)C)CC(C(=O)N(C(C)C)C(C)C)=C(C)N1`, the EC50 is greater than 200 µM and the IC50 worked out at 120 µM.

On to `COc1cc(CCCOC(=O)/C=C/c2ccc(O)c(O)c2)cc(O)c1O`, for which the EC50 was greater than 200 µM and the IC50 is greater than 200 µM.

In the case of `O=C(O)c1cccc(S(=O)(=O)NN2C(=O)CSC2c2c(O)ccc3ccccc23)c1` (stereo not given), the EC50 was greater than 200 µM and the IC50 amounted to 29.5 µM.

For the compound `CCOC(=O)CC(SP1(=S)OCC2(CC=CCC2)CO1)C(=O)OCC` (stereo not given), the EC50 was greater than 200 µM and the IC50 turned out to be 93.3 µM.

With `COc1ccc(/C=C/C(=O)C(C)(C)C)cc1`, the result was inactive.

Regarding `C#CC(C)(C)OC(=O)C(=[N+]=[N-])C(C)=O`, the EC50 is greater than 200 µM and the IC50 is greater than 200 µM.

For the compound `C#C[C@]1(O)CC[C@H]2[C@@H]3CCC4=C/C(=N/OC(=O)c5cccc6c(=O)c7ccccc7[nH]c56)CC[C@@H]4[C@H]3CC[C@@]21C`, the EC50 was greater than 200 µM and the IC50 was 30.9 µM.

Consider `CCc1c(C)c(C#N)c(=S)n(C2OC(COC(C)=O)C(OC(C)=O)C(OC(C)=O)C2OC(C)=O)c1C` (stereo not given), for which the EC50 was greater than 200 µM and the IC50 was greater than 200 µM.

The values are drawn from PubChem BioAssay AID179 (DTP/NCI, 2004).
